Our source for the IC50 values is patent publication US20250084095A1, “Aminopyrimidine Derivatives as Cyclin-Dependent Kinase Inhibitors” (Accutar Biotechnology Inc., priority 2023, published 2025).

Experiment [1] concerns Phospho-Rb (Ser807/811) in SW1573-CDK6 KO cells. The experiment in a line: Phospho-Rb expression inhibition in SW1573-CDK6 KO cells quantified by in cell Western. In kind it is cell-based. Conditions: Homo sapiens, 24 hours, read-out: SW1573 CDK6 KO pRb IC50. How it is done: (§1) Parental SW1573 cells were obtained from the American Type Culture Collection (ATCC). CDK4 or CDK6 gene in […] cells was knocked out using the CRISPR-Cas9 technology. First, gRNA complex of CDK4 or CDK6 was prepared with Alt-R CRISPR-Cas9 tracrRNA and crRNA CDK4 (5′-[…]-3′ (SEQ ID NO: 4)) or CDK6 (5′-[…]-3′ (SEQ ID NO. 5)) (IDT-Integrated DNA Technologies), and then ribonucleoprotein (RNP) complex of CDK4 or CDK6 was prepared with respective gRNA complex and Alt-R S.p. Cas9 Nuclease V3 (IDT-Integrated DNA Technologies). Next, 5×10^4/10 μL SWJ1573 cells were electroporated with the CDK4 or CDK6 RNP complex and Alt-R Cas9 Electroporation Enhancer using Neon Transfection System (Thermo Fisher). Cells were then plated in a 96-well plate to select single clones for validation of CDK4 or CDK6 knockout by western blot analysis.
(§2) MCF7 cells were obtained from American Type Culture Collection (ATCC, HTB-22). SW1573-CDK6 KO and SW1573-CDK4 KO cells were generated by the CRISPR-Cas9 technology. All cells were plated in 96-well plates (VWR #10062-900, or Corning #3904) in 90 uL culture medium at a density of 20,000 cells/well in the respective growth medium containing 10% FBS and 1% Penicillin Streptomycin, and then incubated at 37° C. overnight. The following day, the test compound was administered to the cells by using 1000× compound stock solution prepared in DMSO at various concentrations. 1000× compound stock solution was first diluted in culturing medium to 10×, then 10 uL compound medium was added to each well in the cell plates. After administration of the compound, the cells were then incubated at 37° C. for 24 hours. Upon completion, the cells were washed with PBS briefly. 150 uL/well of 4% formaldehyde was added and the plates were incubated at room temperature for 20 mins. The cells were washed with PBS briefly, and permeabilized with 150 uL/well of ice cold 100% methanol for 10 mins. The cells were washed with PBS briefly and blocked with 100 uL/well LI-COR blocking buffer for 1 hr at room temperature with gentle shaking. The cells were incubated overnight at 4° C. with 50 uL primary antibody rabbit anti-Phospho-Rb (Ser807/811) (1: 500, Cell Signaling, #8516) and anti-Rb (1:200, Santa Cruz, sc-73598) diluted in Intercept Blocking Buffer (LI-COR, #927-60001) containing 0.1% Tween 20. The next day, the cells were washed with 200 uL PBS containing 0.1% Tween 20, 5×5 mins at room temperature with gentle shaking, and incubated with 50 uL secondary antibody, IRDye® 800CW Goat anti-Rabbit IgG (1:1000, LI-COR, #926-32211) and IRDye®680RD Goat anti-Mouse IgG (1:1000, LI-COR, #926-68070), in LI-COR blocking buffer with 0.2% Tween 20 for 1 hr at room temperature with gentle shaking. The cells were washed with 200 uL PBS containing 0.1% Tween 20, 5×5 mins at room temperature with gentle shaking. The cells were washed with PBS for 5 mins. 100 uL fresh PBS was added to each well and the plates were imaged on a LI-COR Odyssey CLX plate reader.

Experiment [2] has as its system Phospho-Rb (Ser807/811) in SW1573-CDK4 KO cells. The experiment in a line: Phospho-Rb expression inhibition in SW1573-CDK4 KO cells quantified by in cell Western. The experiment is classed as cell-based. Conditions: Homo sapiens, 24 hours, read-out: SW1573 CDK4 KO pRb IC50. How it is done: as §1, §2

Broadly, the IC50 is the concentration that gives 50% inhibition. Take `CCn1cc(C(C)C)c2sc(-c3nc(N[C@@H]4C[C@H]5CO[C@H](O5)[C@H]4O)ncc3Cl)c(C)c2c1=O` [Compound 230, 5-ethyl-2-(5-chloro-2-(((1S,3R,4S,5R)-4-hydroxy-6,8-dioxabicyclo[3.2.1]octan-3-yl)amino)pyrimidin-4-yl)-7-isopropyl-3-methylthieno[3,2-c]pyridin-4(5H)-one]: the figures for the IC50 in experiment [1] and in experiment [2] were ≤ 40 nM and 150 to 1000 nM, respectively.

For the compound `CC(C)(O)c1cnc2c(F)cc(-c3nc(N[C@@H]4C[C@H]5CO[C@H](O5)[C@H]4O)ncc3Cl)cc2c1Cl` [Compound 252, (1S,3R,4S,5R)-3-((5-chloro-4-(4-chloro-8-fluoro-3-(2-hydroxypropan-2-yl)quinolin-6-yl)pyrimidin-2-yl)amino)-6,8-dioxabicyclo[3.2.1]octan-4-ol], the IC50 was ≤ 40 nM in experiment [1] and 150 to 1000 nM in experiment [2].

`CC(C)(O)c1cnc2c(F)cc(-c3nc(N[C@@H]4C[C@H]5CO[C@H](O5)[C@H]4O)ncc3F)cc2c1Cl` [Compound 255, (1S,3R,4S,5R)-3-((4-(4-chloro-8-fluoro-3-(2-hydroxypropan-2-yl)quinolin-6-yl)-5-fluoropyrimidin-2-yl)amino)-6,8-dioxabicyclo[3.2.1]octan-4-ol]: the IC50 is ≤ 40 nM in experiment [1] and > 1000 nM in experiment [2].

Take `Cc1c(C(C)(C)O)cnc2c(F)cc(-c3nc(N[C@@H]4C[C@H]5CO[C@H](O5)[C@H]4O)ncc3F)cc12` [Compound 256, (1S,3R,4S,5R)-3-((5-fluoro-4-(8-fluoro-3-(2-hydroxypropan-2-yl)-4-methylquinolin-6-yl)pyrimidin-2-yl)amino)-6,8-dioxabicyclo[3.2.1]octan-4-ol]: the 50% inhibitory concentration (IC50) in experiment [1] was ≤ 40 nM; in experiment [2], > 1000 nM.

Take `Cc1c(C(C)(C)O)cnc2c(F)cc(-c3nc(N[C@@H]4C[C@H]5CO[C@H](O5)[C@H]4O)ncc3Cl)cc12` [Compound 257, (1S,3R,4S,5R)-3-((5-chloro-4-(8-fluoro-3-(2-hydroxypropan-2-yl)-4-methylquinolin-6-yl)pyrimidin-2-yl)amino)-6,8-dioxabicyclo[3.2.1]octan-4-ol]: the IC50 was ≤ 40 nM in experiment [1] and 150 to 1000 nM in experiment [2].

`Cc1c(-c2nc(N[C@@H]3C[C@H]4CO[C@H](O4)[C@H]3O)ncc2Cl)sc2c(C(C)C)cnnc12` [Compound 259, (1S,3R,4S,5R)-3-((5-chloro-4-(4-isopropyl-7-methylthieno[3,2-c]pyridazin-6-yl)pyrimidin-2-yl)amino)-6,8-dioxabicyclo[3.2.1]octan-4-ol]: the IC50 in experiment [1] was ≤ 40 nM; in experiment [2] it was 150 to 1000 nM.

For `COC(=O)N1CC[C@@H](c2nc3c(F)cc(-c4nc(N[C@@H]5C[C@H]6CO[C@H](O6)[C@H]5O)ncc4F)cc3n2C(C)C)C1` [Compound 265, methyl (R)-3-(4-fluoro-6-(5-fluoro-2-(((1S,3R,4S,5R)-4-hydroxy-6,8-dioxabicyclo[3.2.1]octan-3-yl)amino)pyrimidin-4-yl)-1-isopropyl-1H-benzo[d]imidazol-2-yl)pyrrolidine-1-carboxylate], the figures for the IC50 in experiment [1] and in experiment [2] were 40 to 150 nM and > 1000 nM, respectively.

`CC(C)n1c([C@@H]2CCOC2)nc2c(F)cc(-c3nc(N[C@@H]4C[C@H]5CO[C@H](O5)[C@H]4O)ncc3Cl)cc21` [Compound 268, (1S,3R,4S,5R)-3-((5-chloro-4-(4-fluoro-1-isopropyl-2-((S)-tetrahydrofuran-3-yl)-1H-benzo[d]imidazol-6-yl)pyrimidin-2-yl)amino)-6,8-dioxabicyclo[3.2.1]octan-4-ol]: the IC50 in experiment [1] is 40 to 150 nM; in experiment [2], > 1000 nM.

Turning to `CC(C)n1c([C@H]2CCOC2)nc2c(F)cc(-c3nc(N[C@@H]4C[C@H]5CO[C@H](O5)[C@H]4O)ncc3F)cc21` [Compound 269, (1S,3R,4S,5R)-3-((5-fluoro-4-(4-fluoro-1-isopropyl-2-((R)-tetrahydrofuran-3-yl)-1H-benzo[d]imidazol-6-yl)pyrimidin-2-yl)amino)-6,8-dioxabicyclo[3.2.1]octan-4-ol], the half-inhibitory concentration (IC50) in experiment [1] is 150 to 1000 nM; in experiment [2], > 1000 nM.

Consider `CC(C)n1c([C@@H]2CCOC2)nc2c(F)cc(-c3nc(N[C@@H]4C[C@H]5CO[C@H](O5)[C@H]4O)ncc3F)cc21` [Compound 270, (1S,3R,4S,5R)-3-((5-fluoro-4-(4-fluoro-1-isopropyl-2-((S)-tetrahydrofuran-3-yl)-1H-benzo[d]imidazol-6-yl)pyrimidin-2-yl)amino)-6,8-dioxabicyclo[3.2.1]octan-4-ol], for which the IC50 in experiment [1] is 40 to 150 nM; in experiment [2], > 1000 nM.

`Cc1c(-c2nc(N[C@@H]3C[C@H]4CO[C@H](O4)[C@H]3O)ncc2Cl)sc2c(Cl)c(C(C)(C)O)cnc12` [Compound 275, (1S,3R,4S,5R)-3-((5-chloro-4-(7-chloro-6-(2-hydroxypropan-2-yl)-3-methylthieno[3,2-b]pyridin-2-yl)pyrimidin-2-yl)amino)-6,8-dioxabicyclo[3.2.1]octan-4-ol]: the results for the IC50 in experiment [1] and in experiment [2] were 40 to 150 nM and > 1000 nM, respectively.

With `Cc1c(-c2nc(N[C@@H]3C[C@H]4CO[C@H](O4)[C@H]3O)ncc2F)sc2c(Cl)c(C(C)(C)O)cnc12` [Compound 276, (1S,3R,4S,5R)-3-((4-(7-chloro-6-(2-hydroxypropan-2-yl)-3-methylthieno[3,2-b]pyridin-2-yl)-5-fluoropyrimidin-2-yl)amino)-6,8-dioxabicyclo[3.2.1]octan-4-ol], the IC50 was ≤ 40 nM in experiment [1] and 150 to 1000 nM in experiment [2].

As to `Cc1c(-c2nc(N[C@@H]3C[C@H]4CO[C@H](O4)[C@H]3O)ncc2Cl)sc2c(C)c(C(C)(C)O)cnc12` [Compound 277, (1S,3R,4S,5R)-3-((5-chloro-4-(6-(2-hydroxypropan-2-yl)-3,7-dimethylthieno[3,2-b]pyridin-2-yl)pyrimidin-2-yl)amino)-6,8-dioxabicyclo[3.2.1]octan-4-ol], the IC50 in experiment [1] is ≤ 40 nM; in experiment [2], > 1000 nM.

In the case of `Cc1c(CN2CC[C@H](F)C2)n(C(C)C)c2cc(-c3nc(N[C@@H]4C[C@H]5CO[C@H](O5)[C@H]4O)ncc3F)ccc2c1=O` [Compound 293, 7-(5-fluoro-2-(((1S,3R,4S,5R)-4-hydroxy-6,8-dioxabicyclo[3.2.1]octan-3-yl)amino)pyrimidin-4-yl)-2-(((S)-3-fluoropyrrolidin-1-yl)methyl)-1-isopropyl-3-methylquinolin-4(1H)-one], the figures for the IC50 in experiment [1] and in experiment [2] were ≤ 40 nM and 150 to 1000 nM, respectively.

As for `CC(C)n1c(N2C(=O)OC[C@@H]2C)nc2c(F)cc(-c3nc(N[C@@H]4C[C@H]5CO[C@H](O5)[C@H]4O)ncc3Cl)cc21` [Compound 298, (S)-3-(6-(5-chloro-2-(((1S,3R,4S,5R)-4-hydroxy-6,8-dioxabicyclo[3.2.1]octan-3-yl)amino)pyrimidin-4-yl)-4-fluoro-1-isopropyl-1H-benzo[d]imidazol-2-yl)-4-methyloxazolidin-2-one], the figures for the IC50 in experiment [1] and in experiment [2] were 40 to 150 nM and > 1000 nM, respectively.
